# Source: ChEMBL document CHEMBL1201862, “PubChem BioAssay data set” (2004)
# Activity calls are given as the source filed them.
# Assays:
# [1] = A375 melanoma cell viability loss, dose response, counter-screen for MITF inhibitor project, CellTiter-Glo luminescence, dry powder, set 4 (AID 624364); assay type: functional, cell-based; details: A-375;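 note: A375 melanoma cells are MITF independent so this is a counter screen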
# [2] = A375 melanoma cell cytotoxicity, dose response, counter-screen for MITF inhibitor project, CellTiter-Glo luminescence, dry powder, set 2 (AID 624489); assay type: functional, cell-based; details: A-375;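 note: actives are compounds lowering A375 viability meaning general cytotoxicity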
# [3] = biological target: T1, Microphthalmia-associated transcription factor (Homo sapiens, UniProt O75030); test: TRPM1 promoter luciferase signal decrease, dose response, MITF inhibitor project, cell-based, SK-MEL-5, cherry-picked, set 3 (AID 493073); assay type: functional
# T1 sequence (O75030 whole entry): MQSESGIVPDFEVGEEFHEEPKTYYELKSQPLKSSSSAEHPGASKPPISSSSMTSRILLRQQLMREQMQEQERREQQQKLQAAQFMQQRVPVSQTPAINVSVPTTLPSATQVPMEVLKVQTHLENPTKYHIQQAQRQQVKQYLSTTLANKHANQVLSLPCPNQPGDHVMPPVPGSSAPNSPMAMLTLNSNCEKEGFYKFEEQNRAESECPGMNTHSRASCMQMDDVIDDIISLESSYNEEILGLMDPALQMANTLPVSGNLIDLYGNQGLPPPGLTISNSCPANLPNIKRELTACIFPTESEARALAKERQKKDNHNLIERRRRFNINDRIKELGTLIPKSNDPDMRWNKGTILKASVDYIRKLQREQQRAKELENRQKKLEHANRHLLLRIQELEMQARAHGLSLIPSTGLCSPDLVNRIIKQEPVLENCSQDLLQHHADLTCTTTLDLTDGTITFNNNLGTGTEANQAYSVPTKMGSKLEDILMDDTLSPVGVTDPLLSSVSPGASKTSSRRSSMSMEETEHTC
# [4] = biological target: T2, Apoptotic protease-activating factor 1 (Homo sapiens, UniProt O14727); assay type: functional
# T2 sequence (O14727 whole entry): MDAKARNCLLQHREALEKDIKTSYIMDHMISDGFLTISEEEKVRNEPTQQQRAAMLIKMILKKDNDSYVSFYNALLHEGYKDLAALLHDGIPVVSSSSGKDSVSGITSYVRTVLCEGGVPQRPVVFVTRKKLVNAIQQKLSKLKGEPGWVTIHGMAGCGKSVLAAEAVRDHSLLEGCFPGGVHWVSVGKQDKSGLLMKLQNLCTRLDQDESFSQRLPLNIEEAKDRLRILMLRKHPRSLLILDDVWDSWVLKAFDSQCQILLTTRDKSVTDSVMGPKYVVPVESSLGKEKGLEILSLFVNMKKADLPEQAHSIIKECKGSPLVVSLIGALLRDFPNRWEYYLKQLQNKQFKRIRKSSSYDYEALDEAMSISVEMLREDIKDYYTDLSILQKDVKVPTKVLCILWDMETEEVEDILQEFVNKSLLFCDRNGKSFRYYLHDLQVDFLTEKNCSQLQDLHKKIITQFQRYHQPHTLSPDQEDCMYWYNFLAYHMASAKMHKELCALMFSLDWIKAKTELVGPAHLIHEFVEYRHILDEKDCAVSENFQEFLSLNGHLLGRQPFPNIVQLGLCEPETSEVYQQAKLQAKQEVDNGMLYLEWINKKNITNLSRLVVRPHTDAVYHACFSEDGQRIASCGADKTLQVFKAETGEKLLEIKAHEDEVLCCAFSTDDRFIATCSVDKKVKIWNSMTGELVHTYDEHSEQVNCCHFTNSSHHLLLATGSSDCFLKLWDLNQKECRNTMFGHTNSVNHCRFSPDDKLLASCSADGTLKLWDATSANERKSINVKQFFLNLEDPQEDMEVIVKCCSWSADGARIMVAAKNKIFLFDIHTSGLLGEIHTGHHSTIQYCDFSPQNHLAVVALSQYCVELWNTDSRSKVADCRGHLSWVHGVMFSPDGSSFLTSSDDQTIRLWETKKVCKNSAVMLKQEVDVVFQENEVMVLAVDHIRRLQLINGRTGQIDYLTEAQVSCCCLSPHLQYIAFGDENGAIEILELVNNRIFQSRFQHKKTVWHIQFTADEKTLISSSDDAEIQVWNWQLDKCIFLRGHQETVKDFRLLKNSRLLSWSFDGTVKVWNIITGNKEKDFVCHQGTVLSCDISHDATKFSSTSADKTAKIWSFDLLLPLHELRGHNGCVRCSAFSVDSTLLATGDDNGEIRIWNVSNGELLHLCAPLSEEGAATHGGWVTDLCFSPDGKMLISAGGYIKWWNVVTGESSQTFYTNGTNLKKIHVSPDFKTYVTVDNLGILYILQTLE
# [5] = Artemis endonuclease inhibitor potency, dose response, biochemical, fluorescence intensity (AID 720701); assay type: functional;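 note: Artemis endonuclease enzyme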
# [6] = P. falciparum ATP4 D1247Y mutant growth inhibitors, dose response, NITD609-resistant line, SYBR Green, dry powder (AID 1159571); assay type: functional, cell-based;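 note: parasites synchronized at ring stage by sorbitol before testing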
# [7] = P. falciparum Dd2 growth inhibitors, dose response, SYBR Green, dry powder samples (AID 1159566); assay type: functional, cell-based;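 note: potency for growth inhibition with lower SYBR green DNA signal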
# [8] = P. falciparum Dd2 growth inhibitors, dose response, SYBR Green, cherry-picked samples (AID 1159567); assay type: functional, cell-based
# [9] = P. falciparum 3D7-ScDHODH growth inhibitors, dose response, SYBR Green, dry powder samples (AID 1159570); assay type: functional, cell-based;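 note: parasite growth measured after 72 hours of compound exposure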
# [10] = HepG2 cell cytotoxicity, dose response, cytotoxicity control, cherry-picked samples (AID 1159577); assay type: functional, cell-based
# [11] = HepG2 cell cytotoxicity, dose response, cytotoxicity control, plate reader, dry powder samples (AID 1159569); assay type: functional, cell-based;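 note: inhibitor potency with signal falling toward the positive control level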
# [12] = HeLa 4N DNA content increase, dose response, cell-based, IC50 (AID 1117351); assay type: functional
# [13] = HeLa 2N DNA content increase, dose response, cell-based, IC50 (AID 1117349); assay type: functional
# [14] = P. falciparum Dd2 growth inhibitors, dose response, SYBR Green, dry powder samples, set 9 (AID 1159568); assay type: functional, cell-based
# [15] = biological target: T3, Caspase-6 (Homo sapiens, UniProt P55212); test: human caspase-6 inhibitors, dose response, biochemical, VEID-R110 fluorescence, cherry-pick (AID 720632)
# T3 sequence (P55212 whole entry): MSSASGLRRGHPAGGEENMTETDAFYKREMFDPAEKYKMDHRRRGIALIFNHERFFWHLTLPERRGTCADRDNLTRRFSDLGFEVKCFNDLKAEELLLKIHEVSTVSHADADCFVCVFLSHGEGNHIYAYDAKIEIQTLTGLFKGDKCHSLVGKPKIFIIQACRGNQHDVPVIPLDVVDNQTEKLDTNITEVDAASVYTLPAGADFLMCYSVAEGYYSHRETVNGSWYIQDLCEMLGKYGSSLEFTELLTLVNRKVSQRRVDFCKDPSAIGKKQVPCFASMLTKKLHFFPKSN
# [16] = biological target: T4, Caspase-7 (Homo sapiens, UniProt P55210); test: human caspase-7 inhibitors, dose response, selectivity assay for caspase-6 inhibitor project, biochemical, DEVD-R110 fluorescence, cherry-pick (AID 743295)
# T4 sequence (P55210 whole entry): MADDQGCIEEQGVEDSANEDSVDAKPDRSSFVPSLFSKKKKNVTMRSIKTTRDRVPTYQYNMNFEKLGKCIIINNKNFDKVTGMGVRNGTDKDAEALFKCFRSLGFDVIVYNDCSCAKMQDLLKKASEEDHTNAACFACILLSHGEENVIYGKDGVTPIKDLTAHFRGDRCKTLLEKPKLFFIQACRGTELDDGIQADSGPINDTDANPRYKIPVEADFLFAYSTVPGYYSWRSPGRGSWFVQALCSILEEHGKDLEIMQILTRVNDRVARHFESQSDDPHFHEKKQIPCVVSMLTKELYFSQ
# [17] = biological target: Caspase-8 (Homo sapiens, UniProt Q14790); test: caspase-8 inhibition counter-screen, dose response, selectivity assay for caspase-6 inhibitor project, biochemical, Z-IETD-R110 fluorescence, cherry-picked samples (AID 743294)
# [18] = biological target: Caspase-9 (Homo sapiens, UniProt P55211); test: caspase-9 enzyme inhibition, dose response, selectivity assay for caspase-6 inhibitor project, biochemical, fluorescence, plate reader, cherry-picked samples (AID 743293)
# [19] = biological target: T5, Tyrosyl-DNA phosphodiesterase 2 (Homo sapiens, UniProt O95551); test: human TDP2 enzyme inhibitors, dose response, biochemical, epi absorbance, IC50 (AID 743297)
# T5 sequence (O95551 whole entry): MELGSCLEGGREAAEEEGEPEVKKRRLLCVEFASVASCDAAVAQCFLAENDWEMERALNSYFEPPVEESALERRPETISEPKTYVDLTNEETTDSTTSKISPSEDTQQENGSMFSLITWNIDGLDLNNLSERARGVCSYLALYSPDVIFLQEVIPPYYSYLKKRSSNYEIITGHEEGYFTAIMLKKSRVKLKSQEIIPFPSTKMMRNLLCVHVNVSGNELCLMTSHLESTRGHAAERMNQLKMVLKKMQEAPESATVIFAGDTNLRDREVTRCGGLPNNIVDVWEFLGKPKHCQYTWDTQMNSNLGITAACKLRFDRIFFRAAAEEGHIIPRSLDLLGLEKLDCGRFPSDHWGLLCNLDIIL
# [20] = biological target: Glutathione-S-transferase (Schistosoma japonicum, UniProt Q26513); test: biotin-GST/anti-GST TR-FRET signal inhibitors, dose response, artefact control for Vif-APOBEC3G degradation inhibitor project, biochemical (AID 1117362); assay type: functional
# [21] = inhibitors of Vif binding to APOBEC3G peptide, primary screen, biochemical, TR-FRET, GST-Vif 1-94, biotin-A3G peptide, dose response retest (AID 1117319); assay type: functional;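 note: TR-FRET signal of purified GST-Vif binding a biotinylated A3G peptide; inhibitors lower the FRET signal by blocking Vif and A3G binding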
# [22] = biological target: T6, Histone-lysine N-methyltransferase NSD2 (Homo sapiens, UniProt O96028); assay type: biochemical
# T6 sequence (O96028 whole entry): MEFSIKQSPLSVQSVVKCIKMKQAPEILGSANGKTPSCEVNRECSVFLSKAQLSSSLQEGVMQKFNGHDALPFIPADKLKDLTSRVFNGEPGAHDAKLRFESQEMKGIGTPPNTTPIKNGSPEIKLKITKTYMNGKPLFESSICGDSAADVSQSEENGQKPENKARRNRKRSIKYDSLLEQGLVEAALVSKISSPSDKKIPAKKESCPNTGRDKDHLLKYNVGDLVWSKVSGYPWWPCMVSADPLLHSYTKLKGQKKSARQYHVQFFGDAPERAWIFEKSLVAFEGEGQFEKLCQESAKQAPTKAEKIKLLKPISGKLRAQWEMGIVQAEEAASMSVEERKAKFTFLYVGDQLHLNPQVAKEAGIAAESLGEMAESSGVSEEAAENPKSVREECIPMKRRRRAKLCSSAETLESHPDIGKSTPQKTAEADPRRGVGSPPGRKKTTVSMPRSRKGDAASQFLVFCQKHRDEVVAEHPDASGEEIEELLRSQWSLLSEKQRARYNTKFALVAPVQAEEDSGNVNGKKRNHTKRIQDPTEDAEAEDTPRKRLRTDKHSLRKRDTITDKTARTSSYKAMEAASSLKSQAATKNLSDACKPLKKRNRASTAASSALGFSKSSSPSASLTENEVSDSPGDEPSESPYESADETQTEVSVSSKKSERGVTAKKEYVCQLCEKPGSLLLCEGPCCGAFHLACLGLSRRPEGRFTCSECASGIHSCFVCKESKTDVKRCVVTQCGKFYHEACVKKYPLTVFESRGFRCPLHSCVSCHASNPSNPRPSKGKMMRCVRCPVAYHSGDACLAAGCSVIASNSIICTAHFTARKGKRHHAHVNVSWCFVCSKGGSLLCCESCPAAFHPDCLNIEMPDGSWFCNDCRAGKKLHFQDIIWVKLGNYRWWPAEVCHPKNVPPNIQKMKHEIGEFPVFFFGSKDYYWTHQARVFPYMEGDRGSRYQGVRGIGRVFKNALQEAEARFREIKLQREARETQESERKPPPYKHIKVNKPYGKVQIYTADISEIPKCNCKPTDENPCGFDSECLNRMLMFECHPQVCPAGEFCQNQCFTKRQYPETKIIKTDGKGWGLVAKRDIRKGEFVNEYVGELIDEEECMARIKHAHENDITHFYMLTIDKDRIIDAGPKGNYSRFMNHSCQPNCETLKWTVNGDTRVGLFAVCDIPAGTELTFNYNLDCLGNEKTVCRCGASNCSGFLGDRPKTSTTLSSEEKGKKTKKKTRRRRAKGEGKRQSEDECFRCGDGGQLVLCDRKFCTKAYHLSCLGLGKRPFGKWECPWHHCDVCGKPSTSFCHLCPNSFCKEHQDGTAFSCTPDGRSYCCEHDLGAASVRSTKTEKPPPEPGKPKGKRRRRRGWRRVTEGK
# [23] = biological target: Nonstructural protein 1 (Influenza A virus, UniProt Q194T2); assay type: functional, Influenza A virus (A/California/07/2009(H1N1))
# Chain of Nonstructural protein 1 (Q194T2 whole entry): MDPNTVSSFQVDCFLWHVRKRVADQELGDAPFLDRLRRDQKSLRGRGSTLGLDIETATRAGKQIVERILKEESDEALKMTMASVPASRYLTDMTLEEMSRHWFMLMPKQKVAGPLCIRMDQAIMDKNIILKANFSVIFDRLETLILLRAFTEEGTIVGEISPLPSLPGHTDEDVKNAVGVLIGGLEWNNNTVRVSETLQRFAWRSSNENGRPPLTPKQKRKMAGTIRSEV
# Chain of Caspase-9 (P55211 1-315 limits assumed): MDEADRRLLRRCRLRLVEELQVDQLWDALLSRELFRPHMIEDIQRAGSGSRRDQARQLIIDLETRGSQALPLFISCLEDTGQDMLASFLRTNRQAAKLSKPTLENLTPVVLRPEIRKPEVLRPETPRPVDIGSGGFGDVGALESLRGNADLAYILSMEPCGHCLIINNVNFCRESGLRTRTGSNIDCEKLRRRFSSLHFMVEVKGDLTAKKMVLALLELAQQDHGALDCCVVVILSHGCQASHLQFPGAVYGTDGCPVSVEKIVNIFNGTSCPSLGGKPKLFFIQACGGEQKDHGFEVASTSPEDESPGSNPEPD
# Chain of Caspase-9 (P55211 331-416 limits assumed): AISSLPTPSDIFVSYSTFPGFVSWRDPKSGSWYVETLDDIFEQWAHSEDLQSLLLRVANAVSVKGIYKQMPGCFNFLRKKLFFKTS
# Chain of Caspase-8 (Q14790 217-374 limits assumed): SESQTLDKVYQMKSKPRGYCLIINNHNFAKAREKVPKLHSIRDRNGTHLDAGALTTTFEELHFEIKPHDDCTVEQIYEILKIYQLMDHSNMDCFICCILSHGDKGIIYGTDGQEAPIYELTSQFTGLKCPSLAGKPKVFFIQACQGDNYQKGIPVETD
# Chain of Caspase-8 (Q14790 385-479 limits assumed): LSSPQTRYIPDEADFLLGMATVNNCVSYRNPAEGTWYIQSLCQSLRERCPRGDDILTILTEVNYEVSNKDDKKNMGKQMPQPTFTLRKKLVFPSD
# Chain of Glutathione-S-transferase (Q26513 whole entry): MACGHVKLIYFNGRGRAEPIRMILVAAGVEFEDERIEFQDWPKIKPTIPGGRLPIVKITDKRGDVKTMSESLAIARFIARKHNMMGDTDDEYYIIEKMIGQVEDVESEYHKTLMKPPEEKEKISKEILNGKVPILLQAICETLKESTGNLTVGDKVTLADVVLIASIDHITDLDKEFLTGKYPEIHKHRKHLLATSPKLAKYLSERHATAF
structure (smiles),measurement,setting,value
CN1CCN(C2=C(NS(=O)(=O)c3ccccc3)C(=O)c3ccccc3C2=O)CC1,AC50,[1],44.6 µM (active)
same,AC50,[2],28.1 µM (active)
same,AC50,[3],6.9 µM (active)
same,IC50,[4],39.1 µM (active)
O=C1c2ccccc2C(=O)N1OCc1cccc(Cl)c1,IC50,[5],2.09 µM (active)
COc1ccccc1C#Cc1ccc([C@@H]2[C@@H](CO)N3CCCCN(CCC(F)(F)F)C[C@H]23)cc1,AC50,[6],0.221 µM (active)
same,AC50,[7],0.254 µM (active)
same,AC50,[8],1.13 µM (active)
same,AC50,[9],0.418 µM (active)
same,AC50,[10],36.5 µM (active)
same,AC50,[11],9.58 µM (active)
CC(C)OC(=O)OCOP(=O)(CO[C@H](C)Cn1cnc2c(N)ncnc21)OCOC(=O)OC(C)C,IC50,[12],> 10 µM (inactive)
same,IC50,[13],> 10 µM (inactive)
O=C(Nc1ccc(F)cc1)N1C[C@@H]2[C@H](c3ccccc31)[C@@H](CO)N2Cc1ccccc1Cl,AC50,[14],12.3 µM (active)
O=C1NC(=O)C(=Cc2ccccc2[N+](=O)[O-])S1,AC50,[15],3.66 µM (active)
same,AC50,[16],9.01 µM (active)
same,AC50,[17],21 µM (active)
same,AC50,[18],16.1 µM (active)
same,IC50,[19],13.6 µM (inactive)
Cn1c(C(=O)NCCN2CCOCC2)cc2c(=O)n(C)c3ccccc3c21,IC50,[20],> 100 µM (active)
same,IC50,[21],> 100 µM (active)
O=C1C(NS(=O)(=O)c2ccc(Br)cc2)=C(N2CCCCC2)C(=O)c2ccccc21,AC50,[1],> 70 µM (inactive)
same,AC50,[2],> 70 µM (inactive)
same,AC50,[22],6.22 µM (active)
same,IC50,[23],14.5 µM (active)
CCCNC(=O)N1[C@H](CO)[C@H](c2ccc(C#Cc3cccc(F)c3)cc2)[C@@H]1C#N,AC50,[14],8.55 µM (active)
